# What was measured:
# [1] = target: T1, L-[Aba^67.95 (CO-S)^51–52]2 HIV-1 PR (Human immunodeficiency virus type 1 group M subtype B, UniProt P03369, C557A/C585A); experiment: Fluorogenic assay of inhibitors against the L-ligation analog; assay type: biochemical; settings: corresponding chiral substrate, 5×1C50 concentration of inhibitor
# T1 construct: to form the ligated 99-residue D- and L-[(NHCH2COSCH2 CO)^51-52]; HIV-1 PR products; made in house; host or cells: total chemical synthesis: solid-phase segments 1-51 and 53-99 joined by chemical ligation
# Method: (§1) The D- and L-enzymes were separately assayed by the fluorogenic assay method using the corresponding chiral substrate, in the presence of 5×1C50 concentration of inhibitor. The fluorogenic assays were performed with 15 ul aliquots (corresponding to […] protein) of each enzyme enantiomer in 100 millimolar MES buffer pH 6.5 added to a solution of […] D- or L-fluorogenic substrate in the MES buffer. The substrate sequence was 2-aminobenzoyl-Thr-Ile-Nle-Phe(p-NO2)-Gln-Arg amide (SEQ ID NO 2): it was synthesized with either D- or L-amino acid derivatives to provide the appropriate enantiomeric forms. The inhibitor Evans Blue is a non-peptide, achiral mixed competitive-uncompetitive inhibitor of the HIV-1 PR enzyme.
# [2] = test system: D-[Aba^67.95 (CO-S)^51–52]2 HIV-1 PR; experiment: Fluorogenic assay of inhibitors against the D-ligation analog; assay type: biochemical; settings: corresponding chiral substrate, 5×1C50 concentration of inhibitor
# Method: as §1
# [3] = control of morning sickness during pregnancy; cited from earlier work
Compound,inhibition of L-[Aba^67.95 (CO-S)^51–52]2 HIV-1 PR [1],inhibition of D-[Aba^67.95 (CO-S)^51–52]2 HIV-1 PR [2],sedative effect [3]
Ac-Thr-Ile-Nle-psi[CH2NH]-Nle-Gln-Arg.amide [D-MVT101],no effect,inhibits,–
Ac-Thr-Ile-Nle-psi[CH2NH]-Nle-Gln-Arg.amide [L-MVT101],inhibits,no effect,–
"O=C1CC[C@@H](N2C(=O)c3ccccc3C2=O)C(=O)N1 (single isomer, unassigned) [D-enantiomer of thalidomide]",–,–,safe and effective sedative
